Laboratory results from paper PMC9102668, “Highly Cytotoxic Osmium(II) Compounds and Their Ruthenium(II) Analogues Targeting Ovarian Carcinoma Cell Lines and Evading Cisplatin Resistance Mechanisms” (International Journal of Molecular Sciences, 2022).

Tests used:
Type in all cases: cell-based
all cancer cell lines = experiment: Mean IC50 (MTT assay) for all cancer cell lines
Experimental: (§1) Thus, it can be concluded that the biological activity is mediated by a longer chain (butoxy) at the meta-position, whereas the ortho- and para-positions are more suitable with a shorter chain (ethoxy). To have a further look at the influence of the different ligand systems and substitution patterns, all β-Hydroxydithiocinnamic acid alkyl esters were tested under same conditions as their derived ruthenium(II) complexes (Figure 5B, Supplementary Table S3). […] All ligands are less cytotoxic than Cisplatin itself and therefore the metal(II) center is necessary for the high cytotoxic activity, what is in clear contrast to the literature for O,S-chelating ruthenium(II) or osmium(II) compounds with thiomaltol ligand [48, 71] but confirmed for Ru(II)/Os(II) compounds with N,N-bidentate glycosyl heterocyclic ligands. This is exemplarily shown by the comparison of mean IC50 values for Cisplatin, L14, and Ru14 (Supplementary Figure S8).
Ovarian cancer cell lines were cultured under standard conditions (5% CO2, 37 °C, 90% humidity) in RPMI medium supplemented with 10% FCS, 100 U/mL penicillin and 100 µg/mL streptomycin (Life Technologies, Dreieich, Germany). […] The proportion of viable cells was quantified by the MTT assay and after background subtraction relative values compared to the mean of medium controls were calculated. […]

Fibroblasts = experiment: IC50 on non-cancerous cell cultures; settings: normal primary short-term cell culture
[1] = tested on: Cisplatin resistant cell lines; experiment: Mean IC50 (MTT assay) on Cisplatin resistant cell lines
Experimental: as §1
(§2) Ovarian cancer cell lines were cultured under standard conditions (5% CO2, 37 °C, 90% humidity) in RPMI medium supplemented with 10% FCS, 100 U/mL penicillin and 100 µg/mL streptomycin (Life Technologies, Dreieich, Germany). Cisplatin (Sigma, Taufkirchen, Germany) was freshly dissolved at 1 mg/mL in 0.9% NaCl solution and diluted appropriately. New ruthenium(II) complexes and ligands were dissolved in dmso. Platinum-resistant A2780 and SKOV3 cells were established by repeated rounds of 3-day incubations with increasing amounts of Cisplatin starting with 0.1 µM. The concentration was doubled after 3 incubations, interrupted by recovery phases with normal medium. […] Determinations of IC50 values were carried out using the CellTiter96 non-radioactive proliferation assay (MTT assay, Promega, Mannheim, Germany). After seeding 5000 cells per well in a 96-well plate, cells were allowed to attach for 24 h and were incubated for 48 h with different concentrations of the substances ranging from 0 to 500 µM for Ruthenium and 0 to 1000 µM for ligand tests (0, 1, 10, 50, 100, 500, 1000 µm), for Cisplatin from 0 to 100 µM (0.1, 1, 5, 10, 50, 100 µM). Each measurement was done in triplicate and repeated 3 times. The proportion of viable cells was quantified by the MTT assay and after background subtraction relative values compared to the mean of medium controls were calculated. Non-linear regression analyses applying the Hill slope were run in GraphPad 5.0 software.

MCF10A = experiment: IC50 on non-cancerous cell cultures; settings: non-cancerous breast epithelial cell line
A2780 cells = experiment: Cell death rate, PI staining of live cells (FACS); settings: A2780 and SKOV3 cells, 20 µM and 30 µM, 48 h
Experimental: For cell death rate analysis, live cells were stained with PI immediately after 48 h treatment. […] Furthermore, resistant cells show much lower Cisplatin-induced cell death rates (Figure 7). […] In A2780 cells, both compounds trigger similar cell death rates in parental and Cisplatin-resistant cells. Cisplatin-resistant SKOV3 are much more sensitive to both ruthenium(II) complexes than the parental counterpart, with a median of 3.3-fold higher sensitivity.
To examine cell cycle distribution and cell death rates, 30,000 cells were seeded in 12 well plates. After attaching for 24 h cells were treated with Cisplatin, Ru3 and Ru14 for 48 h at various concentrations for cell cycle and cell death analyses. For cell death analysis, immediately after treatment cells were stained with Propidium Iodid (PI) (1 µg/mL) on ice and the number of dead cells was measured using BD Canto II. For cell cycle distribution, cells recovered for 24 h after treatment. Afterwards, cells were fixed in ice-cold, 50% EtOH for 24 h at −20 °C. For DNA staining, fixed cells were incubated in PBS with 0.05% Triton-X, 0.1 µg/mL RNaseA and 50 µg/mL PI for 1 h at 4 °C in dark. DNA content was measured using BD Canto II.

A2780cis = experiment: MTT assay (CellTiter96), cytotoxic activity
Experimental: (§3) The biological behaviour of all substances was characterized by their cytotoxic activity against a panel of cell lines enabling an understanding of the structure-activity relationship. Cytotoxic activity was determined on ovarian carcinoma cell lines SKOV3 and A2780 as well as their Cisplatin resistant analogues (SKOV3cis and A2780cis) and the lung carcinoma cell line A549. Due to a low solubility in water, dmso is used as a solvent for the preparation of a dilution series in cell culture experiments. The toxic influence of dmso was determined earlier and experiments were carried out with 0.5% dmso in cell culture media and this concentration was used as reference sample in each MTT assay (details: Section 3). […] Resistance factors (RF) were determined for all substances (for IC50 values and RF of β-Hydroxydithiocinnamic acid esters L1–L18, see Tables S2 and S3, Supplementary part). All investigated ruthenium(II) compounds show lower RF values than Cisplatin on ovarian carcinoma cell lines, ranging from 0.2 to 1.5 (Table 3). Whereas the IC50 values on the non-resistant cell lines are in most cases higher than the IC50 of the reference substance, no increase of IC50 values is observed for the resistant cell lines. Contrary, eight ruthenium complexes show lower IC50 values on SKOV3cis than Cisplatin and four compounds on A2780cis. Thus, it can be concluded that these compounds are able to bypass the Cisplatin resistance mechanism in these cell lines pointing to a different mechanism of action.
as §2

A549 = experiment: MTT assay (CellTiter96), cytotoxic activity; settings: lung carcinoma cell line, 48 h incubation
Experimental: as §3, §2

SKOV3 = experiment: MTT assay (CellTiter96), cytotoxic activity; settings: 48 h incubation
Experimental: as §3, §2

SKOV3cis = experiment: MTT assay (CellTiter96), cytotoxic activity
Experimental: as §3, §2

A2780 = experiment: MTT assay (CellTiter96), cytotoxic activity; settings: 48 h incubation
Experimental: as §3, §2

[(η^6-p-cymene)Ru(1-(3-ethoxyphenyl)-3-(methylthio)-3-thioxo-prop-1-en-1-olate-O,S)] [Ru14]
mean IC50 value / cytotoxicity for all cancer cell lines compared with Cisplatin (all cancer cell lines): lower | IC50 (Fibroblasts): > 100 µM | mean IC50 value on Cisplatin resistant cell lines compared with Cisplatin [1]: lower | IC50 (MCF10A): 16.7 µM | capacity to induce cell death in vitro (A2780 cells): high capacity to induce cell death | RF A2780 (resistance factor) (A2780cis; A2780cis vs A2780): 1.5 | IC50 (A2780cis; Cisplatin resistant A2780, MTT assay, 48 h incubation): 2.9 µM | IC50 (A549): 2.7 µM | IC50 (SKOV3): 3.5 µM | IC50 (SKOV3cis; Cisplatin resistant SKOV3, MTT assay, 48 h incubation): 5.1 µM | RF SKOV3 (resistance factor) (SKOV3cis; SKOV3cis vs SKOV3): 1.5 | IC50 (A2780): 1.9 µM
